Our source for the inhibition values is paper PMC6895199, “A new antiviral scaffold for human norovirus identified with computer-aided approaches on the viral polymerase” (Scientific Reports, 2019).

The target in the experiment is HuNoV (GII.4) RdRp (Norovirus Hu/GII.4/Sydney/NSW0514/2012/AU, UniProt K4L8Z7). The experiment can be described thus: Quantitative fluorescent RdRp activity assay (PicoGreen, poly(C) template). Type of experiment: biochemical, human norovirus Sydney 2012. The settings on record: 20 µM; read-out: inhibition of HuNoV RdRp activity at fixed concentration. As to the method:
The newly synthesised compounds, including the carboxylate ester derivatives 34–35 and 7 from the Core Hopping approach, were evaluated for their enzymatic inhibition of human norovirus Sydney 2012 (HuNoV (GII.4)) RdRp activity in vitro, using a quantitative fluorescent assay. Compounds were tested at six different concentrations (concentration range examined: 0.1–100 µM) and compared to the relative activity of mock treated samples containing the vehicle only (0.5% DMSO [vol/vol]). PPNDS [Pyridoxal-5′-phosphate-6-(2′-naphthylazo-6′-nitro-4′,8′-disulfonate) tetrasodium salt], a previously reported potent inhibitor of NoV RdRp activity, and 1 were used as positive controls. Dose-dependent inhibitory response curves were used to establish IC50 values for the eight test compounds, as reported in Table 1 (see also Supplementary Fig. S1).
The newly prepared compounds 48–60 were initially evaluated against norovirus Sydney 2012 RdRp activity in vitro using a quantitative fluorescent assay. Compounds were tested at a fixed concentration of 20 µM and compared to the relative activity of mock treated samples. PPNDS and 1 were used as positive controls. […] These two rings are structural features present in 1 and in one of its derivatives we have previously reported. […] From these observations, the thiophene ring appears not to influence inhibitory activity. Derivatives in which the central core of 48 has been used to link the two terminal hydrophobic rings of 1 or of its derivatives we have previously reported[25] (55, 57, 58) appear to retain the RdRp inhibitory activity found for 48 (~20% at 20 µM). A similar effect is obtained when a sulfonyl group, as in our hit 1, is used to link ring 2, regardless if it is a thiazole (59) or an unsubstituted phenyl ring (60), to the rest of the molecule. […] Overall, even if showing a reduced biochemical activity in comparison with 1, some of the new derivatives can be considered as modest HuNoV RdRp inhibitors at 20 µM.
Fluorescent RdRp activity assays were carried out as previously described[12],[29]. Briefly, RdRp activity was quantified by monitoring the formation of double-stranded RNA (dsRNA) from a single stranded homopolymeric template, poly(C) (Sigma Aldrich), using the fluorescent dye PicoGreen (Life Technologies, Carlsbad, CA, USA). RdRp assays were performed in 384-well plates, and each reaction mixture contained 400 ng enzyme, 45 μM GTP, 10 ng/μL poly(C) RNA, 2.5 mM MnCl2, 5 mM dithiothreitol, (DTT), 0.01% bovine serum albumin (BSA), and 0.005% Tween 20 in 20 mM Tris-HCl, pH 7.5, with a final reaction volume of 25 μL. The PPNDS and compound 1 were used as a positive controls. RdRps were incubated for 10 mins at 30 °C in the presence of the test compounds or the compound vehicle DMSO (0.5% vol/vol) before addition into the reaction mixture, which was then allowed to run 15 min at 30 °C then terminated with 10 mM EDTA, followed by PicoGreen staining and dsRNA quantitation. GraphPad Prism V6.05 (La Jolla, CA, USA) was used to plot the IC50 values. A secondary gel-based polymerase activity assay was used as a counter-screen as described below, to exclude the possibility of RdRp activity enhancement. Primed elongation activity was examined in a gel-based assay as previously described[12],[29] using the RNA template (PE44-NoV). Gels were imaged using BioRad (Hercules, CA, U.SA) Geldoc Universal Hood II, running BioRad Image Lab software, V4.1, build 16.
For the molecule `O=C(NC(=S)Nc1ccc(N2CCN(C(=O)c3cccs3)CC2)cc1)c1sc2ccccc2c1C(F)(F)F` [Compound 50, N-((4-(4-(Thiophene-2-carbonyl)piperazin-1-yl)phenyl)carbamothioyl)-3-(trifluoromethyl)benzo[b] thiophene-2-carboxamide], the inhibition at 20 µM was 15 to 20%.

Turning to `O=C(NC(=S)Nc1ccc(N2CCN(C(=O)c3cccs3)CC2)cc1)c1ccccc1` [Compound 51, N-((4-(4-(Thiophene-2-carbonyl)piperazin-1-yl)phenyl)carbamothioyl)benzamide], the inhibition at 20 µM is roughly 15%.

On to `O=C(NC(=S)Nc1ccc(N2CCN(C(=O)c3nccs3)CC2)cc1)c1ccccc1` [Compound 58, N-((4-(4-(Thiazole-2-carbonyl)piperazin-1-yl)phenyl)carbamothioyl)benzamide], for which the inhibition at 20 µM is roughly 20%.

For `O=C(Nc1ccc(N2CCN(C(=O)c3cccs3)CC2)cc1)c1ccccc1` [Compound 73, N-(4-(4-(thiophene-2-carbonyl)piperazin-1-yl)phenyl)benzamide], the inhibition at 20 µM was roughly 40%.
